The numbers were not newly measured in US20250235469A1, “Synergistic combinations of Finasteride, Dutasteride, and Minoxidil” (priority 2024, published 2025), which cites them from elsewhere.

Structures are written as SMILES.

Data set [1] relates to DHT levels. The note with it: 5 mg daily dose; 2004 study.
Data set [2] has as its target T1, 5α-reductase type 1 isoenzyme (Homo sapiens, UniProt P18405).
T1 sequence (P18405 1-259): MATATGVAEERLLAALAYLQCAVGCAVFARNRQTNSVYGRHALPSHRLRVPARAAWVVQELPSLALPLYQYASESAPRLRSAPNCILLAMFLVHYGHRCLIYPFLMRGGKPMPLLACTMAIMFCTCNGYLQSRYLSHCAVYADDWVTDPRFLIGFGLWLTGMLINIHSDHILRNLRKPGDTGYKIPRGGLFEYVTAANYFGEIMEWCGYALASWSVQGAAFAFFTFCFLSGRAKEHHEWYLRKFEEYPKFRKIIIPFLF

The target of data set [3] is T2, 5α-reductase type 2 isoenzyme (Homo sapiens, UniProt P31213).
T2 sequence (P31213 1-254): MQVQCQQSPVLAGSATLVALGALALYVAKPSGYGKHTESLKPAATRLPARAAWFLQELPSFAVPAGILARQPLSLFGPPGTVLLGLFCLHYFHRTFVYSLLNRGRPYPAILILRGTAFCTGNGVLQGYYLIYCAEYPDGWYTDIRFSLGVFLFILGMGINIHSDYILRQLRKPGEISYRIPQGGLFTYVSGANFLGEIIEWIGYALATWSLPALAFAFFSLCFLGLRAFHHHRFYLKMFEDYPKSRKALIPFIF

For data set [4] the following is noted: in vivo.
For data set [5], the system named is hair count.

On to `C[C@]12C=CC(=O)N[C@@H]1CC[C@@H]1[C@@H]2CC[C@]2(C)[C@@H](C(=O)Nc3cc(C(F)(F)F)ccc3C(F)(F)F)CC[C@@H]12` [dutasteride, N-[2,5-bis(trifluoromethyl)phenyl]-3-oxo-4-aza-5α-androst-1-ene-17β-carboxamide], for which the “reduced DHT levels” value in data set [1] is listed as 98.4%. In addition, in data set [2], the “inhibition of type 1 isoenzyme of 5α-reductase” value was “inhibits both the types 1 and 2 isoenzymes”. Besides, in data set [3], the “inhibition of type 2 isoenzyme of 5α-reductase” value was “inhibits both the types 1 and 2 isoenzymes”. Besides, the half-life entry in data set [4] is recorded as “several months”. Also, the “increase in hair count” value in data set [5] (men, 2006 study, dutasteride compared to finasteride) is recorded as “higher increase in hair count”.

As to `CC(C)(C)NC(=O)[C@H]1CC[C@H]2[C@@H]3CC[C@H]4NC(=O)C=C[C@]4(C)[C@H]3CC[C@]12C` [finasteride, 17β-(N-tert-butylcarbamoyl)-4-aza-5α-androst-1-en-3-one], the “reduced DHT levels” value in data set [1] is listed as 70.8%. For the same molecule, in data set [3], the “inhibition of type 2 isoenzyme of 5α-reductase” value is “only inhibits the type 2 isoenzyme”. Besides, the half-life entry in data set [4] was “only a few hours”. In addition, the “hair count and hair loss in users” value in data set [5] (studies of finasteride users) was “both an increase in hair count and a reduction in hair loss”.
